Laboratory results from PMC5923120, “Acylhydrazones as Antifungal Agents Targeting the Synthesis of Fungal Sphingolipids” (Antimicrobial Agents and Chemotherapy, 2018).
In brackets after ≈: the same amount, converted by molar mass. Where two headings read alike, the source gives them in different places.

How the values were obtained:
[1] = test system: Cryptococcus neoformans H99; assay: Synergistic assay (FIC), CN; type: cell-based
Method: (§1) Synergistic activity was assayed by calculating the fractional inhibitory index (FIC). Briefly, in a 96-well plate, drug A (D13) was serially diluted from 16 to 0.015 μg/ml (11 dilutions), whereas drug B (either fluconazole, amphotericin B, caspofungin, itraconazole, or voriconazole) was serially diluted from 12 to 0.19 μg/ml for fluconazole, 5 to 0.078 μg/ml for amphotericin B, or 8 to 0.007 μg/ml for caspofungin, itraconazole, or voriconazole (seven dilutions). The FIC was defined as (MIC combined/MIC drug A alone) + (MIC combined/MIC drug B alone). Synergism was categorized with the following scale: strongly synergistic effect, FIC of <0.5; synergistic effect, FIC of <1; additive effect, FIC of 1; no effect, FIC between 1 and 2; antagonistic effect, FIC of >2.

in vitro [2] = details: monkey
Text: A commercially available kit was used to examine permeability through the blood-brain barrier (BBB kit MBT-24; Pharmaco Cell Co. Ltd.). This kit allows us to perform a permeability assay using an in vitro reproduction of the blood-brain barrier using monkey brain. Briefly, in a 12-well plate there is a triple culture, with endothelial cells in the luminal part and perycites and astrocytes in the abluminal side connected by tight junctions. The luminal side of the well represents the blood side, whereas the abluminal side represents the brain side. The integrity of the blood-brain barrier is assessed by the measurement of TEER, which indicates the formation of tight junctions. To have an efficient system, the TEER should be >150 Ω cm^2. The kit is kept frozen at −80°C until it is ready to use. […] After that it takes 3 days for the cells to adjust, and then the plate can be used in 4 days for the experiment. For drug testing, after assessing the TEER, the drugs were added in the chosen medium at the desired concentrations and at different time points. At the end of each time point the TEER was measured to assess if the BBB was still intact. After that the medium was collected and subjected to MS to measure the concentration of the samples in the brain side and calculate the permeability value (Papp).

Candida krusei = assay: Synergistic assay (FIC), CK Flu R1; type: cell-based; details: Pichia kudriavzevii
Method: as §1

Candida albicans 3022 = assay: Synergistic assay (FIC), CA Flu-R; type: cell-based; details: Candida albicans, 3022; CA Flu-R
Method: as §1

Candida albicans A39 = assay: Synergistic assay (FIC), CA; type: cell-based
Method: as §1

Candida krusei ATCC 6258 = assay: Synergistic assay (FIC), CK Flu R2; type: cell-based; details: Pichia kudriavzevii, ATCC6258
Method: as §1

A549 = assay: In vitro toxicity (MTT), A549; type: cell-based; details: Homo sapiens, cytotoxicity
Method: (§2) The murine macrophage cell line J774 and human cancer cell lines A549 and HepG2 were maintained in DMEM containing 10% fetal bovine serum (FBS) and 1% penicillin-streptomycin. At passage 7, 10^5 cells/well in DMEM containing 10% FBS were transferred into 96-well plates and cultured for 14 h for the cells to adhere to the wells. The compounds were added to the cells at concentrations ranging from 0.03 to 128 μg/ml. The wells without the compound served as controls. […] After 24 or 48 h, the supernatant was removed and 50 μl of 5-mg/ml 3-(4,5-dimethylthiazol-2-yl)-2,5-diphenyltetrazoliumbromide (MTT) solution in phosphate-buffered saline (PBS) was added to each well. The plates were incubated for an additional 4 h. The formazan crystal formed inside the cell was dissolved by adding 50 μl of dimethyl sulfoxide (DMSO). The optical density was measured at 570 nm.

HepG2 = assay: In vitro toxicity (MTT), HepG2; type: cell-based; details: Homo sapiens, cytotoxicity
Method: as §2

C. neoformans [3] = assay: In vitro killing assay; details: for K100*: minimum concentration that kills 100% of C. neoformans cells in 48 h
Method: C. neoformans cells from a culture grown overnight were washed in PBS and resuspended in YNB buffered with HEPES at pH 7.4. The cells were counted, and 2 × 10^4 cells were incubated with different concentrations of the drugs in a final volume of 10 ml with a final concentration of 0.5% DMSO. The tubes were then incubated at 37°C with 5% CO2 on a rotary shaker at 200 rpm. Aliquots were taken at the time points indicated and diluted, and 100-µl portions were plated onto YPD plates.

J774 = assay: In vitro toxicity (MTT), J774; type: cell-based, murine; details: Mus musculus, cytotoxicity
Method: as §2

C. neoformans [4] = assay: In vitro susceptibility testing (MIC80); type: cell-based, Cryptococcus neoformans
Method: MICs were determined by following the methods of the Clinical and Laboratory Standards Institute (CLSI), with modifications. […] The compounds were serially diluted from 32 to 0.03 μg/ml in a 96-well plate. The inoculum was prepared as described in CLSI protocol M27A3 guidelines ([39]). […] The MICs were determined as the lowest concentration of the compound that inhibited 80% of growth compared to the control.

Caco-2 permeability = details: human
Method: (§3) The Caco-2 permeability studies were performed as follows. (i) For the preparation of Caco cells, 50-μl and 25-ml volumes of cell culture medium were added to each well of the Transwell insert and reservoir, respectively. The HTS Transwell plates then were incubated at 37°C, 5% CO2 for 1 h before cell seeding. […] (ii) For the preparation of stock solutions, 10 mM stock solutions of test compounds were prepared in DMSO. The stock solutions of positive controls were prepared in DMSO at a concentration of 10 mM. Digoxin and propranolol were used as control compounds in this assay. (iii) For the assessment of cell monolayer integrity, medium was removed from the reservoir and each Transwell insert and replaced with prewarmed fresh culture medium. Transepithelial electrical resistance (TEER) across the monolayer was measured using a Millicell epithelial volt-Ohm measuring system (Millipore, USA). The plate was returned to the incubator once the measurement was done. The TEER value was calculated according to the following equation: TEER measurement (ohms) × area of membrane (cm^2) = TEER value (ohm · cm^2). The TEER value should be greater than 230 Ω · cm^2, which indicates a well-qualified Caco-2 monolayer. (iv) The assay was performed as follows. The Caco-2 plate was removed from the incubator and washed twice with prewarmed Hanks' balanced salt solution (HBSS; with 10 mM HEPES, pH 7.4) and then incubated at 37°C for 30 min. The stock solutions of control compounds were diluted in DMSO to get 1 mM solutions and then diluted with HBSS (10 mM HEPES, pH 7.4) to get 5 μM working solutions. The stock solutions of the test compounds were diluted in DMSO to get 1 mM solutions and then diluted with HBSS (10 mM HEPES, pH 7.4) to get 5 μM working solutions. The final concentration of DMSO in the incubation system was 0.5%. To determine the rate of drug transport in the apical to basolateral direction, 75 μl of 5 μM working solution of test compound was added to the Transwell insert (apical compartment), and the wells in the receiver plate (basolateral compartment) were filled with 235 μl of HBSS (10 mM HEPES, pH 7.4). To determine the rate of drug transport in the basolateral to apical direction, 235 μl of 5 μM working solution of test compound was added to the receiver plate wells (basolateral compartment), and then the Transwell inserts (apical compartment) were filled with 75 μl of HBSS (10 mM HEPES, pH 7.4). Time zero samples were prepared by transferring 50 μl of 5 μM working solution to wells of the 96-deep-well plate, followed by the addition of 200 μl cold acetonitrile or methanol containing appropriate IS. The plates were incubated at 37°C for 2 h. At the end of the incubation, 50-μl samples from donor sides (apical compartment for AP→BL flux and basolateral compartment for BL→AP) and receiver sides (basolateral compartment for AP→BL flux and apical compartment for BL→AP) were transferred to wells of a new 96-well plate, followed by the addition of 4 volumes of cold acetonitrile or methanol containing appropriate IS. […] An aliquot of 100 μl of the supernatant was mixed with an appropriate volume of ultrapure water before LC-MS/MS analysis. To determine the Lucifer yellow leakage after a 2-h transport period, a stock solution of Lucifer yellow was prepared in ultrapure water and diluted with HBSS (10 mM HEPES, pH 7.4) to reach a final concentration of 100 μM. One hundred microliters of the Lucifer yellow solution was added to each Transwell insert (apical compartment), followed by filling the wells in the receiver plate (basolateral compartment) with 300 μl of HBSS (10 mM HEPES, pH 7.4). The plates were incubated at 37°C for 30 min, and 80-μl samples were removed directly from the apical and basolateral wells (using the basolateral access holes) and transferred to wells of new 96-well plates.

[5] = test system: Aspergillus fumigatus 293; assay: Synergistic assay (FIC), AF; type: cell-based
Method: as §1

in vitro [6] = details: human
Method: as §3

C. neoformans [7] = assay: Mouse model of cryptococcosis; type: in vivo, mice
C. albicans = assay: Mouse model of invasive candidiasis; type: in vivo, mice; details: oral gavage 20 mg/kg/day
Aspergillus fumigatus = assay: Mouse model of invasive pulmonary aspergillosis; type: in vivo, mice; details: oral 20 mg/kg/day
Method: For survival study, 8-week-old CBA/J (Envigo) male mice were used. They were divided into sets of 10 mice for each treatment or control group. The day prior to infection, the mice were immunosuppressed by using triamcinolone acetonide (1 mg/mouse) subcutaneously ([40]). On day 0, mice were infected intranasally with 20 μl of a suspension containing 2 × 10^4 conidia of A. fumigatus strain Af293 and were treated through gavage with 20 mg/kg/day of BHBM, D13, or voriconazole (as a drug control) in a final volume of 100 μl of 30% PEG in saline buffer. The untreated control group mice received 100 μl of 30% PEG in saline buffer. Mice were fed ad libitum and were given 50% grapefruit juice in place of normal drinking water to avoid the liver metabolism of the drugs ([41]). Mice were monitored every day for discomfort and sacrificed subsequently.

[8] = Cryptococcus neoformans, ChemBridge compounds, Supplementary Table 1, read-out: MIC80
[9] = lowest concentration inhibiting 80% of growth

Which MIC [1] does the source give for `C[C@@H]1[C@H](O)[C@@H](C)/C=C/C=C/C=C/C=C/C=C/C=C/C=C/[C@H](O[C@@H]2O[C@H](C)[C@@H](O)[C@H](N)[C@@H]2O)C[C@@H]2O[C@](O)(C[C@@H](O)C[C@@H](O)[C@H](O)CC[C@@H](O)C[C@@H](O)CC(=O)O[C@H]1C)C[C@H](O)[C@H]2C(=O)O` [AB, amphotericin B] here?
Its MIC is 0.25 µg/mL.

Which Papp at 5 min (in vitro [2]) does the source give for `Cn1c(=O)c2c(ncn2C)n(C)c1=O` [Caffeine, reference compound] here?
Its Papp at 5 min is 20 ×10⁻⁶ cm/s.

What about the Papp at 15 min (in vitro [2]) of the same molecule?
Its Papp at 15 min is 25 ×10⁻⁶ cm/s.

What about the Papp at 30 min (in vitro [2]) of the same molecule?
Its Papp at 30 min is 25 ×10⁻⁶ cm/s.

What does the source list for `CC[C@H](C)C[C@H](C)CCCCCCCCC(=O)N[C@H]1C[C@@H](O)[C@@H](NCCN)NC(=O)[C@@H]2[C@@H](O)CCN2C(=O)[C@H]([C@H](O)CCN)NC(=O)[C@H]([C@H](O)[C@@H](O)c2ccc(O)cc2)NC(=O)[C@@H]2C[C@@H](O)CN2C(=O)[C@H]([C@@H](C)O)NC1=O` [Caspo, capsofungin]?
MIC (Candida krusei): 1 µg/mL; MIC (Candida albicans 3022): 0.06 µg/mL; MIC (Candida albicans A39): 0.12 µg/mL; MIC (Candida krusei ATCC 6258): 1 µg/mL

With `O=C(N/N=C/c1cc(Br)ccc1O)c1cccc(Br)c1` [D2] as the molecule, how does the IC50 (A549) read?
The IC50 was 16 µg/mL (≈ 40.2 µM).

And the IC50 (HepG2)?
The IC50 was 16 µg/mL (≈ 40.2 µM).

And the “K100*” value (C. neoformans [3])?
The value was 0.12 µg/mL.

What about the IC50 (J774) of the same molecule?
Its IC50 is 16 µg/mL (≈ 40.2 µM).

And the MIC80 (C. neoformans [4]; [8])?
Its MIC80 is 0.25 µg/mL (≈ 0.628 µM).

What about the MIC80 (C. neoformans [4]; [9]) of the same molecule?
Its MIC80 is 0.25 µg/mL (≈ 0.628 µM).

Which results are given for `O=C(N/N=C/c1cc(Br)ccc1O)c1cc(Br)cc(Br)c1O` [D17]?
IC50 (A549): 16 µg/mL (≈ 32.5 µM); IC50 (HepG2): 16 µg/mL (≈ 32.5 µM); K100* (C. neoformans [3]): 0.5 µg/mL; time to kill C. neoformans (C. neoformans [3]; time-kill assay): 6 h; IC50 (J774): 16 µg/mL (≈ 32.5 µM); MIC80 (C. neoformans [4]; [8]): 0.5 µg/mL (≈ 1.01 µM); MIC80 (C. neoformans [4]; [9]): 0.5 µg/mL (≈ 1.01 µM)

With `C[C@H]1O[C@@H](O[C@H]2[C@@H](O)C[C@H](O[C@H]3[C@@H](O)C[C@H](O[C@H]4CC[C@@]5(C)[C@H](CC[C@@H]6[C@@H]5C[C@@H](O)[C@]5(C)[C@@H](C7=CC(=O)OC7)CC[C@]65O)C4)O[C@@H]3C)O[C@@H]2C)C[C@H](O)[C@@H]1O` [Digoxin, reference compound] as the molecule, how does the Papp A→B at 2 h, 5 μM (Caco-2 permeability; Caco-2, pH 7.4) read?
The Papp A→B at 2 h, 5 μM was 0.61 ×10⁻⁶ cm/s.

What about the Papp B→A at 2 h, 5 μM (Caco-2 permeability; Caco-2, pH 7.4) of the same molecule?
Its Papp B→A at 2 h, 5 μM is 20.2 ×10⁻⁶ cm/s.

And the efflux ratio at 2 h, 5 μM (Caco-2 permeability; Caco-2, pH 7.4, Efflux ratio)?
The efflux ratio at 2 h, 5 μM was 33.2.

And the recovery at 2 h, 5 μM (Caco-2 permeability; Caco-2, pH 7.4, Recovery AP→BL)?
Its recovery at 2 h, 5 μM is 82.7%.

What about the recovery at 2 h, 5 μM (Caco-2 permeability; Caco-2, pH 7.4, Recovery BL→AP) of the same molecule?
Its recovery at 2 h, 5 μM is 95.6%.

With `CCC(C)n1ncn(-c2ccc(N3CCN(c4ccc(OCC5COC(Cn6cncn6)(c6ccc(Cl)cc6Cl)O5)cc4)CC3)cc2)c1=O` (stereo not shown) [Itra, itraconazole] as the molecule, how does the MIC [1] read?
Its MIC is 0.06 µg/mL.

What about the MIC [5] of the same molecule?
Its MIC is 0.25 µg/mL.

What about the MIC (Candida krusei) of the same molecule?
Its MIC is 1 µg/mL.

And the MIC (Candida albicans 3022)?
Its MIC is 2 µg/mL.

And the MIC (Candida albicans A39)?
The MIC was 0.06 µg/mL.

And the MIC (Candida krusei ATCC 6258)?
Its MIC is 1 µg/mL.

Which Papp A→B at 2 h, 5 μM (in vitro [6]; Caco-2, pH 7.4) does the source give for `CC(C)NCC(O)COc1cccc2ccccc12` (stereo not shown) [Propranolol] here?
The Papp A→B at 2 h, 5 μM was 34.4 ×10⁻⁶ cm/s.

What about the Papp B→A at 2 h, 5 μM (in vitro [6]; Caco-2, pH 7.4) of the same molecule?
The Papp B→A at 2 h, 5 μM was 19.5 ×10⁻⁶ cm/s.

And the efflux ratio at 2 h, 5 μM (in vitro [6]; Caco-2, pH 7.4)?
Its efflux ratio at 2 h, 5 μM is 0.57.

What about the recovery at 2 h, 5 μM (in vitro [6]; Caco-2, pH 7.4, Recovery AP→BL) of the same molecule?
The recovery at 2 h, 5 μM was 90.7%.

What about the recovery at 2 h, 5 μM (in vitro [6]; Caco-2, pH 7.4, Recovery BL→AP) of the same molecule?
Its recovery at 2 h, 5 μM is 95.5%.

For `OC(Cn1cncn1)(Cn1cncn1)c1ccc(F)cc1F` [fluconazole], which MIC [1] is on record?
The MIC was 2.5 µg/mL.

And the mice that survived (C. neoformans [7]; i.p. 1.2 mg/kg/day, treatment immediately after intranasal infection, 40 days)?
Its mice that survived is 60%.

What about the “mice that survived until the end of the experiment” value (C. neoformans [7]; i.p. 1.2 mg/kg/day, treatment started 5 days after infection) of the same molecule?
The value was 20%.

And the “mice that survived until the end of the experiment” value (C. neoformans [7]; oral 20 mg/kg/day starting the day of infection)?
Its value is 20%.

And the “CFU in brains and lungs” value (C. neoformans [7]; oral 20 mg/kg/day, 32 days posttreatment, data not shown)?
Its value is “numerous colonies in the lungs and brain”.

What about the MIC [5] of the same molecule?
The MIC was greater than 10 µg/mL.

What about the MIC (Candida krusei) of the same molecule?
The MIC was 16 µg/mL.

And the MIC (Candida albicans 3022)?
Its MIC is greater than 16 µg/mL.

What about the “time within which mice died” value (C. albicans) of the same molecule?
Its value is no more than 12 days.

And the MIC (Candida albicans A39)?
Its MIC is 2.5 µg/mL.

What about the MIC (Candida krusei ATCC 6258) of the same molecule?
Its MIC is greater than 16 µg/mL.

With `C[C@@H](c1ncncc1F)[C@](O)(Cn1cncn1)c1ccc(F)cc1F` [voriconazole, reference compound] as the molecule, how does the MIC [1] read?
The MIC was 4 µg/mL.

And the MIC [5]?
The MIC was 1 µg/mL.

What about the “lung fungal burden (CFU) of surviving mice” value (Aspergillus fumigatus; at the endpoint, data not shown) of the same molecule?
Its value is “showed evidence of colonies”.

And the mice that survived (Aspergillus fumigatus; immunosuppressed mice, after 15 days)?
Its mice that survived is 40%.
